Measured values published in patent US10774064B2 (Cadent Therapeutics, Inc., priority 2016, dated 2020).

Target: T1, small-conductance Ca2+-activated K+ channels (SK channels, subtype 2) (Homo sapiens, UniProt Q9H2S1)
T1 construct: expressed in transfected cells; host or cells: HEK293
Assay: whole-cell patch-clamp of ionic current through SK2 channels in HEK293 cells (SC100)
Type: cell-based
Details: whole-cell patch-clamp, HEK293 cells expressing SK2 channels; concentration that increases the basal current by 100%
How it was run: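 Whole-cell patch-clamp recording of current in HEK293 cells expressing SK2 channels. SC100 is the compound concentration that increases basal current by 100%.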

Structure (SMILES)	SC100 (μM)	SC100
Cc1cc(C)n(-c2ncc(N3CCOCC3)c(NC3CCC(F)(F)CC3)n2)n1 [IN10966-011-P1, N-(4,4-difluorocyclohexyl)-2-(3,5-dimethyl-1H-pyrazol-1-yl)-5-morpholinopyrimidin-4-amine]	+ (+ means >1 uM)	–
Cc1csc(-c2nc(NC3CCCC(F)(F)C3)cc(N3CCOCC3)n2)n1 (stereo not shown) [IN10966-028-P1]	++ (++ means 200 nM-1000 nM)	–
Cc1cc(NC2CC=C(F)CC2)nc(-c2nc(C)cs2)n1 (stereo not shown) [IN10966-057-P2, N-(4-fluorocyclohex-3-en-1-yl)-6-methyl-2-(4-methylthiazol-2-yl)pyrimidin-4-amine]	++ (++ means 200 nM-1000 nM)	–
Cc1cc(C)n(-c2cc(C)c(NC3CCC(F)(F)CC3)nn2)n1 [IN10966-083-P1, N-(4,4-difluorocyclohexyl)-6-(3,5-dimethyl-1H-pyrazol-1-yl)-4-methylpyridazin-3-amine]	+ (+ means >1 uM)	–
COCCOc1cc(NC2CCC(F)(F)CC2)nc(-n2ccc(C)n2)n1 [IN10966-093-P1]	+ (+ means >1 uM)	–
Cc1ccn(-c2nc(NC3CCC(F)(F)CC3)cc(OCCN(C)C)n2)n1 [IN10966-095-P1]	+ (+ means >1 uM)	–
Cc1ccnn1-c1cc(C#N)cc(NC2CCC(F)(F)CC2)n1 [IN10967-061-P1, 2-((4,4-difluorocyclohexyl)amino)-6-(5-methyl-1H-pyrazol-1-yl)isonicotinonitrile]	+ (+ means >1 uM)	–
Cc1ccn(-c2cc(CN)cc(NC3CCC(F)(F)CC3)n2)n1 [IN10967-063-P1, 4-(aminomethyl)-N-(4,4-difluorocyclohexyl)-6-(3-methyl-1H-pyrazol-1-yl)pyridin-2-amine]	++ (++ means 200 nM-1000 nM)	–
Cc1csc(-c2nc(NC3CCC(F)(F)CC3)cc(C(O)c3ccccc3)n2)n1 (stereo not shown) [IN10971-033-P1, (6-((4,4-difluorocyclohexyl)amino)-2-(4-methylthiazol-2-yl)pyrimidin-4-yl) (phenyl) methanol]	+ (+ means >1 uM)	–
Cc1ccc(-c2nc(NC3CCC(F)(F)CC3)cc(N3CCOCC3)n2)n1C [IN10971-059-P1, N-(4,4-difluorocyclohexyl)-2-(1,5-dimethyl-1H-pyrrol-2-yl)-6-morpholino pyrimidin-4-amine]	+ (+ means >1 uM)	–
FC1(F)CCC(Nc2cc(N3CCOCC3)nc(-c3ccco3)n2)CC1 [IN10971-060-P1, N-(4,4-difluorocyclohexyl)-2-(furan-2-yl)-6-morpholinopyrimidin-4-amine]	+ (+ means >1 uM)	–
Cc1ccc(-c2nc(NC3CCC(F)(F)CC3)cc(N3CCOCC3)n2)o1 [IN10971-077-P1, N-(4,4-difluorocyclohexyl)-2-(5-methylfuran-2-yl)-6-morpholinopyrimidin-4-amine]	+ (+ means >1 uM)	–
Cc1cc(C)n(-c2nc(NC3CCC(F)(F)CC3)cc(N3CCOC(C#N)C3)n2)n1 (stereo not shown) [IN10971-081-P1, 4-(6-((4,4-difluorocyclohexyl)amino)-2-(3,5-dimethyl-1H-pyrazol-1-yl)pyrimidin-4-yl) morpholine-2-carbonitrile]	++ (++ means 200 nM-1000 nM)	–
Cc1ccc(-c2nc(NC3CCC(F)(F)CC3)cc(C(C)O)n2)o1 (stereo not shown) [IN10971-088-P1, 1-(6-((4,4-difluorocyclohexyl)amino)-2-(5-methylfuran-2-yl)pyrimidin-4-yl) ethan-1-ol]	+ (+ means >1 uM)	–
Cc1cc(C)n(-c2nc(C(C)O)cc(N(C)C3CCCCC3)n2)n1 (stereo not shown) [IN10973-004-P1]	+ (+ means >1 uM)	–
Cc1cc(C)n(-c2nc(NC3CCCC(C(F)(F)F)C3)cc(C(C)O)n2)n1 (stereo not shown) [IN10973-005-P1]	+ (+ means >1 uM)	–
Cc1cc(C)n(-c2nc(NC3CCCCC3)cc(C(C)O)n2)n1 (stereo not shown) [IN10973-008-P1]	+ (+ means >1 uM)	–
COC(=O)N1CCC(Oc2cc(NC3CCC(F)(F)CC3)nc(-c3nc(C)cs3)n2)C1 (stereo not shown) [IN10973-025-P1]	–	1 µM
Cc1csc(-c2nc(NC3CCC(F)(F)CC3)cc(C(C)N3CCOCC3)n2)n1 (stereo not shown) [IN10973-028-P1, N-(4,4-difluorocyclohexyl)-2-(4-methylthiazol-2-yl)-6-(1-morpholinoethyl)pyrimidin-4-amine]	+ (+ means >1 uM)	–
FC1(F)CCC(Nc2cc(N3CCOCC3)nc(-n3cccn3)n2)CC1 [IN10973-038-P1, N-(4,4-difluorocyclohexyl)-6-morpholino-2-(1H-pyrazol-1-yl)pyrimidin-4-amine]	+ (+ means >1 uM)	–
Cc1ccn(-c2nc(NC3CCC(F)(F)CC3)cc(S(C)(=O)=O)n2)n1 [IN10973-041-P1]	+ (+ means >1 uM)	–
Cc1csc(-c2nc(NC3CCC(F)(F)CC3)cc(C(C)S(C)(=O)=O)n2)n1 (stereo not shown) [IN10973-053-P1, N-(4,4-difluorocyclohexyl)-6-(1-(methylsulfonyl)ethyl)-2-(4-methylthiazol-2-yl)pyrimidin-4-amine]	+ (+ means >1 uM)	–

Structure (SMILES)	SC100 (μM)	SC100
Cc1ccn(-c2nc(NC3CCC(F)(F)CC3)cc(C(C)S(C)(=O)=O)n2)n1 (stereo not shown) [IN10973-060-P1, N-(4,4-difluorocyclohexyl)-2-(3-methyl-1H-pyrazol-1-yl)-6-(1-(methylsulfonyl)ethyl)pyrimidin-4-amine]	+ (+ means >1 uM)	–
COC(C)c1cc(NC2CCC(F)(F)CC2)nc(-n2ccc(C)n2)n1 (stereo not shown) [IN10973-083-P1, N-(4,4-difluorocyclohexyl)-6-(1-methoxyethyl)-2-(3-methyl-1H-pyrazol-1-yl)pyrimidin-4-amine]	+ (+ means >1 uM)	–
Cc1ccn(-c2cc(NC3CCC(F)(F)CC3)cc(N3CCOCC3)n2)n1 [IN10973-098-P1, N-(4,4-difluorocyclohexyl)-2-(3-methyl-1H-pyrazol-1-yl)-6-morpholinopyridin-4-amine]	+ (+ means >1 uM)	–
Cc1csc(-c2nc(NC3(C)CCCCC3)cc(N3CCOCC3)n2)n1 [IN10973-099-P1]	+ (+ means >1 uM)	–
Cc1cc(C)n(-c2nc(NC3CCC(F)(F)CC3)cc(N3CCOC(COC(F)F)C3)n2)n1 (stereo not shown) [IN10984-022-P1]	++ (++ means 200 nM-1000 nM)	–
Cc1ccn(-c2nc(NC3CCC(F)(F)CC3)cc(N(C)C3CCOC3)n2)n1 (stereo not shown) [IN10984-043-P1]	+ (+ means >1 uM)	–
Cc1ccn(-c2nc(NC3CCC(F)(F)CC3)nc(N3CCOCC3)n2)n1 [IN10984-079-P1, N-(4,4-difluorocyclohexyl)-4-(3-methyl-1H-pyrazol-1-yl)-6-morpholino-1,3,5-triazin-2-amine]	+ (+ means >1 uM)	–
Cc1cc(C)n(-c2nc(NC3CCC(F)(F)CC3)cc(C(O)c3ccccc3)n2)n1 (stereo not shown) [IN10987-030-P1]	+ (+ means >1 uM)	–
Cc1ccn(-c2nc(NC3CCC(F)(F)CC3)cc(C(O)c3ccccc3)n2)n1 (stereo not shown) [IN10987-039-P1]	+ (+ means >1 uM)	–
Cc1csc(-c2nc(NC3CCC(F)(F)CC3)cc(N3C[C@@H]4C[C@H]3CN4)n2)n1 [IN10987-050-P1]	+ (+ means >1 uM)	–
Cc1cc(C)n(-c2nc(NC3CCC(F)(F)CC3)cc(C(C)N3CCOCC3)n2)n1 (stereo not shown) [IN10987-055-P1, N-(4,4-difluorocyclohexyl)-2-(3,5-dimethyl-1H-pyrazol-1-yl)-6-(1-morpholinoethyl)pyrimidin-4-amine]	+ (+ means >1 uM)	–
Cc1csc(-c2nc(NC3CCC(F)(F)CC3)cc(N3CC4CC3CN4C)n2)n1 (stereo not shown) [IN10987-056-P1]	++ (++ means 200 nM-1000 nM)	–
Cc1cc(C)n(-c2nc(OC3CCC(F)(F)CC3)cc(N3CCOCC3)n2)n1 [IN10991-021-P1, 4-(6-((4,4-difluorocyclohexyl)oxy)-2-(3,5-dimethyl-1H-pyrazol-1-yl)pyrimidin-4-yl)morpholine]	+ (+ means >1 uM)	–
Cc1cc(C)n(-c2cc(N3CCOCC3)cc(NC3CCC(F)(F)CC3)n2)n1 [IN10991-044-P1, N-(4,4-difluorocyclohexyl)-6-(3,5-dimethyl-1H-pyrazol-1-yl)-4-morpholinopyridin-2-amine]	++ (++ means 200 nM-1000 nM)	–
Cc1cc(C)n(-c2cc(NC3CCC(F)(F)CC3)cc(N3CCOCC3)n2)n1 [IN10991-065-P1, N-(4,4-difluorocyclohexyl)-2-(3,5-dimethyl-1H-pyrazol-1-yl)-6-morpholinopyridin-4-amine]	+ (+ means >1 uM)	–
Cc1cc(C)n(-c2cc(NC3CCC(F)(F)CC3)nc(N3CCOCC3)c2)n1 [IN10991-067-P1, N-(4,4-difluorocyclohexyl)-4-(3,5-dimethyl-1H-pyrazol-1-yl)-6-morpholinopyridin-2-amine]	+ (+ means >1 uM)	–
Cc1ccn(-c2cc(CN3CCOC3=O)cc(NC3CCC(F)(F)CC3)n2)n1 [IN10991-091-P1]	++ (++ means 200 nM-1000 nM)	–
Fc1cnn(-c2nc(NC3CCC(F)(F)CC3)cc(N3CCOCC3)n2)c1 [IN11030-013-P1, N-(4,4-difluorocyclohexyl)-2-(4-fluoro-1H-pyrazol-1-yl)-6-morpholinopyrimidin-4-amine]	+ (+ means >1 uM)	–
FC1(F)CCC(Nc2cc(N3CCOCC3)nc(-c3ccc[nH]3)n2)CC1 [IN11030-023-P1, N-(4,4-difluorocyclohexyl)-6-morpholino-2-(1H-pyrrol-2-yl)pyrimidin-4-amine]	+ (+ means >1 uM)	–
Cc1csc(-c2nc(NC3CCC(F)(F)CC3)cc(N3CC(F)(F)OC(F)(F)C3)n2)n1 [IN11030-032-P1]	+++ (+++ means <200 nM)	–
Cc1cc(C)n(-c2nc(NC3CCC(F)(F)CC3)cc(N3CC(F)(F)OC(F)(F)C3)n2)n1 [IN11030-035-P1]	++ (++ means 200 nM-1000 nM)	–
